Measured values reported in publication PMC6030159 (Scientific Reports, 2018).

How the values were obtained:
FRA1:JUN = system: T1, FRA1:JUN; experiment: isPLA endogenous FRA1:JUN; format: cell-based, human; settings: 10 μM
T1 construct: endogenous in cells
Protocol: The isPLA assay has been described. Antibodies used are listed in Supplementary Information. Briefly, cells were grown on collagen-coated chamber slides (Falcon), and treated with 1–10 μM of compounds, respectively, for 16 hours, then washed twice with PBS and fixed in ice cold methanol for 5–15 min at room temperature. Slides were washed in PBS with 0.05% Tween 20 and incubated in blocking buffer after which isPLA was performed using the Duolink® in situ PLA kit (Sigma-Aldrich) according to the manufacturer’s protocol. DNA was stained with DAPI. Incubation with primary antibodies were performed at +4 °C overnight. Images were taken using an Axiovert 200M inverted microscope (Zeiss) and fluorescent dots were quantified using semi-automated analysis in ImageJ (http://imagej.net) and averaged to number of dots per cell.

[1] = system: MYC-driven transcription (ODC1, RSG16, CR2); experiment: RT-qPCR of MYC target genes in U2OS-MYC-ER cells; format: cell-based; settings: 10 μM, 24 hours
Protocol: To investigate the effect of the compounds on MYC-driven transcription, we utilized U2OS cells expressing a MYC-estrogen receptor (MYC-ER) fusion protein, the activity of which is regulated by the ligand 4-hydroxytamoxifen (HOT)[43].
These assays were performed essentially as described in[67],[68]. For further information on immunohistochemistry, and on primers and antibodies, see Supplementary Information.

[2] = system: TGR-1 (wt) Rat1 fibroblasts; experiment: WST-1 growth assay, TGR-1 (wt) Rat1 fibroblasts; format: cell-based, rat
Protocol: Cell proliferation assays. Cell growth and viability was estimated in triplicates with WST-1
(Roche) or Resazurin sodium salt (Sigma-Aldrich) assays in medium at 37°C and 5% CO 2 for
2 hours after which absorbance or fluorescence, respectively, was measured with an Omega
Fluostar (BMG Labtech) in a 96 well plate format. […]
0.7% agarose. […]

MAX:MXD1(MAD1) = system: T2, MAX:MXD1(MAD1); experiment: GLuc MAD:MAX in COS-7 cells; format: cell-based; settings: 12.5 µM
T2 construct: full-length MXD1(MAD1) or full-length MAX cDNA; expressed in transfected cells; host or cells: COS-7
Protocol: The protein fragment complementation assay using the Gaussia luciferase has been described. 0.2–0.4 μg of each GLuc-construct (see Supplementary Information) together with 0.05–0.2 μg pCMV-Luc (Firefly luciferase) were transiently transfected into HEK293 or COS-7 cells in 6-well plates. 24 hours later cells were treated with compound (10–25 μM) or DMSO. After another 17 hours, the cells were harvested and lyzed in passive lysis buffer (Promega) supplemented with complete protease inhibitor (Roche). After 60 min incubation at room temperature 20 μM D-luciferin was added (substrate of Firefly luciferase) and luminescence was measured in a Lumat LB9501 (Berthold) or OmegaFluostar (BMG Labtech) luminometer. Directly after, Gaussia luciferase substrate Coelenterazine (Promega) was added to a final concentration of 20 μM in a mixture with “Stop n’ Glow” (Promega) and the luciferase activity was measured. The ratio between Gaussia and Firefly luciferase values were calculated and normalized to DMSO-treated control cells.
Supplementary Figure Legends
Supplemental Figure S1. Schematic presentations of MYC and MAX protein constructs. A) BiFC constructs MYC-YFP-N and MAX-YFP-C, containing full-length MYC and MAX fused with N-terminal and C-terminal fragments of yellow fluorescent protein (YFP), respectively 3.
In the MYC deletion mutant MYCΔbHLHZip-YFP-N, the bHLHZip domain, residues 352-432, has been truncated 3. B) Gaussia princeps Luciferase (GLuc) constructs MYC-GLuc-C and MAX-GLuc-N, containing full-length MYC and MAX fused with N-terminal and C-terminal fragments of GLuc, respectively. MYC was truncated at residue 411-432 in order to produce the deletion mutant MYCΔZ ip-GLuc-C. […]
Supplemental Figure S2. […] The cells were reseeded and treated with vehicle or 25 µM of each compound, after which fluorescence was measured 24 hours post-treatment and the YFP/CFP ratio calculated and normalized to DMSO-treated cells.
B) MAD:MAX GLuc assay. MAD-GLuc-C and MAX-GLuc-N constructs were cotransfected into COS-7 cells together with CMV-Luc and treated with MYCMIs (12.5 µM) and analyzed […]

MYCbHLHZip:MAXbHLHZip = target: T3, MYCbHLHZip:MAXbHLHZip (Homo sapiens, UniProt P01106); experiment: MST MYC:MAX heterodimer formation assay; format: binding; settings: for shift of MAX thermophoresis relative to DMSO (MYC:MAX MST): 50 µM compound, 1 µM MYCbHLHZip
T3 construct: 6xHis (N); made in house; host or cells: E. coli BL21 (DE3), pET28a
Excerpt: We next investigated the capacity of the small molecule inhibitors to directly target the MYC:MAX interaction in vitro. Two biophysical interaction assays, microscale thermophoresis (MST)[44] and surface plasmon resonance (SPR)[45], were developed using recombinant MYC and MAX proteins (Suppl. Fig. S1C) (manuscript in prep.). MST is based on the shift of fluorescent molecules moving in a temperature gradient (thermophoresis), which can be perturbed by interactions. In the MST MYC:MAX interaction assay, fluorescently labeled MAXbHLHZip was combined with MYCbHLHZip pre-mixed with compound.
MST was carried out on a Monolith NT.115 with blue/green filters, kindly provided by Luca Jovine, Karolinska Institutet Huddinge, according to manufacturer’s protocol (NanoTemper). MYCbHLHZip, MAXbHLHZip, BSA and BCL-XL recombinant proteins and compounds were diluted and titrated in PBS supplemented with 0.05% Triton-X-114 or 0.05% Tween-20. Titration of molecules was carried out in 16 PCR tubes into which a fixed concentration of fluorescent molecule was added. The mixture was applied to capillaries (standard treated, NanoTemper), and scanned in the Monolith NT.115 to measure initial fluorescence of molecule. MST was induced and fluorescence was measured during 40 seconds. Double measurements were carried out (MST power of 20% and 40%, or 40% and 60%) for each sample. Delta fluorescence or relative fluorescence of fluorescent molecule normalized to control vehicle was plotted against titrated molecule concentration. The protein labeling kit GREEN-NHS (NanoTemper) was used to label primary amines of proteins according to manufacture’s protocol.

T3 sequence (P01106 367-447 limits assumed): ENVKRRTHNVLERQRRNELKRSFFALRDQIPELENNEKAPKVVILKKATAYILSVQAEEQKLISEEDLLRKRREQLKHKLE

Row | Compound | effect on FRA1:JUN interaction (isPLA) (FRA1:JUN) | HOT-induced expression of MYC target genes ODC1, RSG16 and CR2 [1] | growth of wt (TGR-1) cells [2] | effect on MAX:MXD1(MAD1) interaction (GLuc) (MAX:MXD1(MAD1)) | shift of MAX thermophoresis relative to DMSO (MYC:MAX MST) (MYCbHLHZip:MAXbHLHZip) | Kd (MYCbHLHZip:MAXbHLHZip; titration with 1 µM MYCbHLHZip and labeled MAXbHLHZip, read-out: Kd of thermophoresis shift, MYC:MAX MST) [µM]
1 | CCOc1ccc2nc3cc(/N=N/c4ccc(N)nc4N)ccc3c(N)c2c1 [MYCMI-6] | did not significantly affect | significantly reduced | strongly inhibited growth | did not significantly affect | shifted MAX thermophoresis | 4.3
2 | CCCCN(c1ccccc1)c1ncnc2c1cnn2C [MYCMI-11] | did not significantly affect | reduced expression of the genes to a lesser extent | – | did not significantly affect | less effective | –
3 | O=C(O)/C=C/C(=O)Nc1cccc2c1-c1ccccc1C2=O [MYCMI-14] | did not significantly affect | reduced expression of the genes to a lesser extent | – | did not significantly affect | less effective | –
